Experimental data taken from US11938127B2, “Methods and compositions relating to steroid hormone receptor-dependent proliferative disorders” (Wayne State University, priority 2021, dated 2024).
Where two headings read alike, the source gives them in different places. One block for each molecule: values may come before it.

Assays:
22Rv1 cells [1] = assay: Colony formation assay in 22Rv1 cells; assay type: cell-based; details: 22Rv1 CRPC cells
Protocol: (§1) 22Rv1 cells were plated in triplicate at a density of 2000 cells/well in 6-well plates in 48-hour conditioned medium (phenol-red free RPMI1640 10% FBS, 1% penicillin/streptomycin, 1% L-glutamine) obtained from monolayer cultures of the same cells, as previously described. 48 h after plating, the cells were treated with various concentrations of the test compounds in the same media. The test compounds and media were replenished every 48 hours until colonies developed in the control untreated wells (in 10 days). The colonies were then stained with crystal violet and counted.
The ability of KCI837 to inhibit colony formation in castration and enzalutamide resistant prostate cancer cells was tested. 22Rv1 cells were seeded in triplicate six well plates in phenol red-free conditioned media. 48 hours later, treatment with KCI837 at the indicated doses was initiated. KCI837 was replenished every 48 hours. Seven days later, colonies were fixed and stained with crystal violet. Colony counts are plotted.

CYP1A2 [2] = assay: Hepatic enzyme induction (mRNA) in primary human hepatocytes, CYP1A2; assay type: in vitro ADME; details: 72 hours
Protocol: (§2) Total RNA from cells was isolated using the PureLink RNA Mini Kit (Invitrogen, ThermoFisher Scientific) according to the manufacturer's protocol. Reverse transcription was performed using 30 ng of total RNA and the High Capacity cDNA Reverse Transcription kit (Applied Biosystems, ThermoFisher Scientific) according to the vendor's protocol. cDNA was measured by quantitative real time PCR using the StepOnePlus Real-Time PCR System (Applied Biosystems, Invitrogen) and TaqMan Fast Universal PCR Master Mix (Applied Biosystems, ThermoFisher Scientific). All primers and TaqMan probes were purchased from the Applied Biosystems inventory (ThermoFisher Scientific). All samples were measured in triplicate and normalized to the values for GAPDH.
(§3) Primary human hepatocytes used were the “Cryo Human Hepatocytes” from Gibco. 24 hours prior to treatment, cells were plated at 350,000 cells/well (700,000 cells/mL) in the following media: Williams E medium (WEM, A1217601), 2.5 mL FBS, 5 μL, 10 mM dexamethasone (from Gibco Thawing/Plating Supplement Pack, CM3000), 1.8 mL thawing/plating cocktail (from Gibco Thawing/Plating Supplement Pack, CM3000). […] The mRNAs for the following hepatic enzymes were quantified as described above. […]

UGT1A1 [3] = assay: Hepatic enzyme induction (mRNA) in primary human hepatocytes, UGT1A1; assay type: in vitro ADME; details: 72 hours, doses of 0.5 uM and 5 uM
Protocol: as §2, §3

UGT1A4 = assay: Hepatic enzyme induction (mRNA) in primary human hepatocytes, UGT1A4; assay type: in vitro ADME; details: 72 hours, doses of 0.5 uM and 5 uM
Protocol: as §2, §3

CYP1A2 [4] = biological target: CYP1A2 (Homo sapiens (Human), UniProt P05177); assay: CYP1A2 inhibition assay in pooled human liver microsomes; assay type: in vitro ADME; details: standard enzymatic activity assay
CYP1A2 (Homo sapiens (Human), UniProt P05177), sequence (P05177 whole entry): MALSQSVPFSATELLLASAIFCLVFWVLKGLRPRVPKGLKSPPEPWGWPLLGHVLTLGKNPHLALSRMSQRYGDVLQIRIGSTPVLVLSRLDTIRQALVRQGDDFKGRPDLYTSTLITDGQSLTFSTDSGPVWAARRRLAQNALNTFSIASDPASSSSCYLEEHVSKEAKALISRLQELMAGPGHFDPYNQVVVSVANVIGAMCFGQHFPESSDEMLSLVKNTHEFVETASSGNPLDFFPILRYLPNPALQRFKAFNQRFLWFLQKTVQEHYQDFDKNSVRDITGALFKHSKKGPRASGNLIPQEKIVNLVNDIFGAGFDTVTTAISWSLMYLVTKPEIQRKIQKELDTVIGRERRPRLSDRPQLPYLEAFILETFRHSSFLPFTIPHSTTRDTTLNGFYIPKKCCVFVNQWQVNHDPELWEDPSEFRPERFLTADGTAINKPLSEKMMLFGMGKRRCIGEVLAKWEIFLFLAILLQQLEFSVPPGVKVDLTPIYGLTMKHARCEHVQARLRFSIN
Protocol: The quenched samples were incubated at 4° C. for 10 min and centrifuged at 4° C. for 10 min.

UGT1A1 [5] = biological target: UGT1A1 (Homo sapiens (Human), UniProt P22309); assay: UGT1A1 inhibition assay with human UGT1A1-expressed Supersomes; assay type: in vitro ADME
UGT1A1 (Homo sapiens (Human), UniProt P22309), sequence (P22309 26-533): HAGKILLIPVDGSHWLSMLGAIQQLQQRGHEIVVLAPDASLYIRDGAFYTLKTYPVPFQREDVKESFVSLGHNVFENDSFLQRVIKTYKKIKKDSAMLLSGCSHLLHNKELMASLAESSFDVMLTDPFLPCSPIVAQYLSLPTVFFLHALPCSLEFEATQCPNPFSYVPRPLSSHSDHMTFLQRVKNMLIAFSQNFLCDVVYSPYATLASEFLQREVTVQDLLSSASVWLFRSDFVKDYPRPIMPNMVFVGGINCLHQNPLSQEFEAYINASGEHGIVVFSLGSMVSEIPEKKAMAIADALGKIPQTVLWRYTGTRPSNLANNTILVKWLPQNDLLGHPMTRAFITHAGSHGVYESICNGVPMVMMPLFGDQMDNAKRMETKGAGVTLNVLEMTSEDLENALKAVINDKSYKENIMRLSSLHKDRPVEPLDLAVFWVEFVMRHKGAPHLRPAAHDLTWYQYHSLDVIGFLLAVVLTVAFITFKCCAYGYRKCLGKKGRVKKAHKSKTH
Protocol: KCI838 was incubated at seven increasing concentrations with human UGT1A1-expressed Supersomes™ (0.25 mg/mL), alamethicin (25 μg/mL) and UDPGA (5 mM) in the presence of the probe substrate estradiol (10 μM) for 30 min at 37° C. The UGT1A1 inhibitor, atazanavir, was screened alongside the test compounds as a positive control. The reactions were terminated by quenching with one volume of methanol containing an analytical internal standard. The samples will be centrifuged at 5000 rpm for 10 min at 4° C. The metabolites were monitored by LC-MS/MS and a decrease in the formation of the metabolite compared to the vehicle control was used to calculate an IC50 value (test compound concentration which produces 50% inhibition).

[6] = Repeated intraperitoneal administration to mice (toxicity, body weight); assay type: in vivo, BalbC mice; details: for initial weight loss: male BalbC mice, intraperitoneal
Protocol: KCI838 was repeatedly administered by intraperitoneal injection to two groups of 6-week old male BalbC mice at doses of 200 mg/Kg and 100 mg/Kg.

binding of AR to ELK1 = binding of AR to ELK1 (Homo sapiens (Human), UniProt P10275); assay: BRET assay for inhibition of in situ binding of AR to ELK1 in HEK293T cells; assay type: cell-based; details: HEK-293T, read-out: inhibition of BRET signal for binding of AR to ELK1
binding of AR to ELK1, sequence (P10275 whole entry): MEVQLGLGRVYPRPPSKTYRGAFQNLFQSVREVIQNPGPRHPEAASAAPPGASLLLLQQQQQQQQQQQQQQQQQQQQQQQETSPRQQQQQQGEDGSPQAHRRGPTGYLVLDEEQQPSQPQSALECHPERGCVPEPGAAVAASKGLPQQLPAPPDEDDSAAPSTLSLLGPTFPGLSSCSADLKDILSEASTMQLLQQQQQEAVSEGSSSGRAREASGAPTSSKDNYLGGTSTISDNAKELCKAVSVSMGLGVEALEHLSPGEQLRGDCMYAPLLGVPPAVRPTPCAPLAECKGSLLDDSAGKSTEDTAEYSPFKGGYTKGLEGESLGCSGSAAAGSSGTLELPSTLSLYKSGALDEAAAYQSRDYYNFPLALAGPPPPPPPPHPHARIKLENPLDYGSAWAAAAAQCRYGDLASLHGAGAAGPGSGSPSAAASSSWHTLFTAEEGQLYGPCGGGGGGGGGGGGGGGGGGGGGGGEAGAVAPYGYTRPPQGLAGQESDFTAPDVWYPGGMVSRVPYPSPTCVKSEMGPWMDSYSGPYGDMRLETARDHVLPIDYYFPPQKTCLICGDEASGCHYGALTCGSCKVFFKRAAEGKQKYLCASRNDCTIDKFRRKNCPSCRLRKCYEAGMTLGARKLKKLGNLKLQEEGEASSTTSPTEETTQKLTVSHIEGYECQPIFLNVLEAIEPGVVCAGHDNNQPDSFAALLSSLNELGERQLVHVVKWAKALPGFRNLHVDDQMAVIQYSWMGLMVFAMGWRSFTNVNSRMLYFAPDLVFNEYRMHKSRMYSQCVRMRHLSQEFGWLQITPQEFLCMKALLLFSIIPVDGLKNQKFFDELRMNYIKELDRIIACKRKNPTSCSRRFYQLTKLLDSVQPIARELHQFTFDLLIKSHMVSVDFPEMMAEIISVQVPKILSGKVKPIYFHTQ
Protocol: (§4) HEK293T cells were transfected with Rluc-AR alone, and alongside Turbo-Elk at a 4:1 ratio of ELK1:AR using Mirus LT1 reagent. The 4:1 ratio was determined to be the optimal ratio for the inhibition assay after testing different ratios of Turbo-Elk:Rluc-AR. 24 hours later, cells were treated with DMSO (vehicle control) or KCI838 (0.4 uM and 10 uM) and left for 24 hours. They were then trypsinized and seeded in 96 well white-bottomed plates at 100,000 per well (in quadriplicate) in media lacking phenol red (with DMSO or drug as required), left for 2 hours to settle, and then treated with 25 uM coelenterazine and luminescence read at 535 and 635 nm on a Clariostar instrument. BRET readings were calculated as 635/535 ratio minus 635/535 ratio for Rluc-AR only transfected controls. Cell lysates were probed by western blot for AR or ELK1, probing for GAPDH as the loading control. Cell viability in the presence of KCI838 was ensured by treating HEK293 cells for an extended period (3 days) with the compound or vehicle control and measuring viability using trypan blue staining.
HEK293T cells were transfected with Rluc-AR alone, and alongside Turbo-Elk. 24 hours later, cells were treated with KCI838 at the indicated doses. The following day, the cells were reseeded and allowed to settle for two hours before the BRET assay was performed. […]

HEK293 cells = assay: Viability of HEK293 cells (trypan blue); assay type: cell-based; details: 3 days treatment, 0.4 μM or 10 μM
Protocol: as §4
To ensure that KCI838 was not toxic to the HEK293 cells, viability of the cells was tested following extended (3 days) treatment with, vehicle, 0.4 μM, or 10 μM KCI838. Viable cells were counted after three days and the data was plotted as percent of untreated cells.

22Rv1-Lenti vector cells = assay: Colony formation in control 22Rv1 cells transduced with lentiviral vector alone; assay type: cell-based; details: control 22Rv1 cells (vector), with DHT
Protocol: as §1
(§5) AR expressing lentiviral expression plasmid pCDH-CMV-MCS-EF1-puro (System BioSciences) or the plasmid vector alone (control), was packaged in 293FT cells. Virus-containing media was harvested at 48 and 72 hours after packaging and stored at −80° C. 48 hours before infection, 22Rv1 cells were plated at 30-50% confluence in 10 cm dishes in phenol-red free medium supplemented with 10% heat-inactivated FBS and 2 mM L-glutamine. On the day of infection, cells were infected with the lentivirus with polybrene (8 μg/mL) for a duration of 5 hours. The virus was then replaced with fresh medium containing 10% FBS and 100 units/mL penicillin, 100 μg/mL streptomycin, and 2 mM L-glutamine mixture. […]

22Rv1-Lenti AR cells = assay: Colony formation in 22Rv1 cells overexpressing AR; assay type: cell-based; details: AR overexpressing 22Rv1 cells
Protocol: as §1, §5

22Rv1 cells [7] = assay: Cell viability (MTT) assay, monolayer growth of 22Rv1 cells; assay type: cell-based; details: enzalutamide-resistant 22Rv1 CRPC monolayers; 2.5 uM, 5 uM and 10 uM
Protocol: (§6) Cells from monolayer cultures were trypsinized and seeded in 96-well plates coated with poly(d-lysine) at a density of 4000 cells per well (for 22Rv1 cells and LNCaP cells) or 5000 cells per well (for VCaP cells). The media used were the same as the growth media described above for each cell line. The plates were incubated at 37° C. in 5% CO2. Twenty-four hours later, the cells were treated with the indicated compound or dimethylsulfoxide (vehicle). The culture medium was replaced with fresh media containing vehicle or the appropriate concentration of compound at the end of 48 hours during the time course of the assay. Cell viability was determined on Day 0 and at the various time points using the standard 3-(4,5-dimethylthiazol-2-yl)-2,5-diphenyltetrazolium bromide (MTT) assay. The assays ware conducted in replicates of six wells per condition and values plotted as percent of the Day 0 values.

VCaP cells = assay: Cell viability (MTT) assay, monolayer growth of VCaP cells; assay type: cell-based; details: dose range 2.5 uM-10 uM; dose-dependent
Protocol: as §6

CWR22Rv1-AR-EK cells = assay: MTT growth assay in CWR22Rv1-AR-EK cells; assay type: cell-based; details: three or four days
Protocol: This model cell line thus mimics aggressively growing advanced prostate cancer tumor cells that are insensitive to current treatments such as testosterone suppression and androgen antagonists that cannot affect AR-Vs. Since KCI838 disrupts interaction of ELK1 with wtAR as well as AR-Vs, the effect of KCI838 on the growth of CWR22Rv1-AR-EK cells was tested. For this test, the cells were seeded in phenol red-free growth media. 24 hours later, the cells were treated with KCI838, FIG. 12A, or enzalutamide, FIG. 12B, at the indicated concentrations. Cells were grown for three or four days with replenishment of the drug at 48 hours. Cell viability was measured using the MTT assay.

SMILES: O=c1cc(-c2cccc(O)c2)n(CC(F)(F)F)c2cccc(O)c12 [KCI838]
IC50 (22Rv1 cells [1]; Homo sapiens, read-out: IC50 of colony counts): ~60 nM | induction of CYP1A2 (CYP1A2 [2]; 0.5 uM dose): unable to induce CYP1A2 | induction of CYP1A2 (CYP1A2 [2]; higher doses than 0.5 uM): induce the enzyme | induction of UGT1A1 (UGT1A1 [3]): not induced significantly | induction of UGT1A4 (UGT1A4): not induced significantly | IC50 (CYP1A2 [4]): 2920 nM | IC50 (UGT1A1 [5]; standard enzymatic activity assay, read-out: IC50 value for UGT1A1): 35.9 µM | signs of toxicity ([6]; 6-week old male BalbC mice, repeated intraperitoneal injection, 200 mg/Kg and 100 mg/Kg): no apparent signs of toxicity | initial weight loss ([6]; 100 mg/Kg): ~2% | initial weight loss ([6]; 200 mg/Kg): ~4% | inhibition at 0.4 µM (binding of AR to ELK1; 0.4 μM): 60% | inhibition at 10 µM (binding of AR to ELK1; 10 μM): 95% | viability of HEK293 cells (HEK293 cells): virtually completely viable | IC50 (22Rv1-Lenti vector cells; Homo sapiens, read-out: IC50 for inhibition of colony formation): 68 nM | IC75 for inhibition of colony formation (22Rv1-Lenti vector cells): 121 nM | inhibition of colony formation at 68 nM (22Rv1-Lenti AR cells; 68 nM): no inhibition | IC50 (22Rv1-Lenti AR cells; Homo sapiens, with DHT, read-out: IC50 for inhibition of colony formation): 132 nM

IC50 (UGT1A1 [5]; human UGT1A1 Supersomes, probe substrate estradiol (10 μM), 30 min at 37° C., read-out: IC50): 0.792 µM
SMILES: COC(=O)N[C@H](C(=O)N[C@@H](Cc1ccccc1)[C@@H](O)CN(Cc1ccc(-c2ccccn2)cc1)NC(=O)[C@@H](NC(=O)OC)C(C)(C)C)C(C)(C)C [atazanavir, reference compound]

SMILES: CNC(=O)c1ccc(N2C(=S)N(c3ccc(C#N)c(C(F)(F)F)c3)C(=O)C2(C)C)cc1F [enzalutamide]
time course of growth inhibition (22Rv1 cells [7]): did not inhibit cell growth | effect on colony formation (22Rv1 cells [1]; nanomolar dose range): no effect on colony formation | monolayer growth of VCaP cells (VCaP cells): inhibited monolayer growth | growth of CWR22Rv1-AR-EK cells (CWR22Rv1-AR-EK cells): insensitive
